Laboratory results taken from ChEMBL document CHEMBL4004838, “Design and synthesis of novel phenyl -1, 4-beta-carboline-hybrid molecules as potential anticancer agents” (Eur J Med Chem, 2017).

Legend:
Type in all cases: functional
A549 = experiment: Growth inhibition of human A549/ATCC cells incubated for 48 hrs by sulforhodamine B assay; settings: A549, 48 h
NCI-H460 = experiment: Growth inhibition of human NCI-H460 cells incubated for 48 hrs by sulforhodamine B assay; settings: NCI-H460, 48 h
HCT-116 [1] = experiment: Growth inhibition of human HCT116 cells incubated for 48 hrs by sulforhodamine B assay; settings: HCT-116, 48 h
SW-620 = experiment: Growth inhibition of human SW620 cells incubated for 48 hrs by sulforhodamine B assay; settings: SW-620, 48 h
M14 = experiment: Growth inhibition of human M14 cells incubated for 48 hrs by sulforhodamine B assay; settings: M14, 48 h
SK-MEL-5 = experiment: Growth inhibition of human SK-MEL-5 cells incubated for 48 hrs by sulforhodamine B assay; settings: SK-MEL-5, 48 h
UACC-62 [2] = experiment: Growth inhibition of human UACC62 cells incubated for 48 hrs by sulforhodamine B assay; settings: UACC-62, 48 h
K562 [3] = experiment: Growth inhibition of human K562 cells assessed as cell growth at 0.01 uM incubated for 48 hrs by sulforhodamine B assay relative to control; settings: K562, 48 h, read-out: Activity
HCT-116 [4] = experiment: Growth inhibition of human HCT116 cells assessed as cell growth at 0.01 uM incubated for 48 hrs by sulforhodamine B assay relative to control; settings: HCT-116, 48 h, read-out: Activity
786-0 [5] = experiment: Growth inhibition of human 786-0 cells assessed as cell growth at 0.01 uM incubated for 48 hrs by sulforhodamine B assay relative to control; settings: 786-0, 48 h, read-out: Activity
RXF 393 [6] = experiment: Growth inhibition of human RXF393 cells assessed as cell growth at 0.01 uM incubated for 48 hrs by sulforhodamine B assay relative to control; settings: RXF 393, 48 h, read-out: Activity
DU-145 [7] = experiment: Growth inhibition of human DU145 cells assessed as cell growth at 0.01 uM incubated for 48 hrs by sulforhodamine B assay relative to control; settings: DU-145, 48 h, read-out: Activity
K562 [8] = experiment: Growth inhibition of human K562 cells assessed as cell growth at 0.1 uM incubated for 48 hrs by sulforhodamine B assay relative to control; settings: K562, 48 h, read-out: Activity
RPMI-8226 [9] = experiment: Growth inhibition of human RPMI8226 cells assessed as cell growth at 0.1 uM incubated for 48 hrs by sulforhodamine B assay relative to control; settings: RPMI-8226, 48 h, read-out: Activity
HOP-62 [10] = experiment: Growth inhibition of human HOP62 cells assessed as cell growth at 0.1 uM incubated for 48 hrs by sulforhodamine B assay relative to control; settings: HOP-62, 48 h, read-out: Activity
KM12 = experiment: Growth inhibition of human KM12 cells assessed as cell growth at 0.1 uM incubated for 48 hrs by sulforhodamine B assay relative to control; settings: KM12, 48 h, read-out: Activity
RXF 393 [11] = experiment: Growth inhibition of human RXF393 cells assessed as cell growth at 0.1 uM incubated for 48 hrs by sulforhodamine B assay relative to control; settings: RXF 393, 48 h, read-out: Activity
DU-145 [12] = experiment: Growth inhibition of human DU145 cells assessed as cell growth at 0.1 uM incubated for 48 hrs by sulforhodamine B assay relative to control; settings: DU-145, 48 h, read-out: Activity
HOP-62 [13] = experiment: Growth inhibition of human HOP62 cells assessed as cell growth at 1 uM incubated for 48 hrs by sulforhodamine B assay relative to control; settings: HOP-62, 48 h, read-out: Activity
NCI-H226 = experiment: Growth inhibition of human NCI-H226 cells assessed as cell growth at 1 uM incubated for 48 hrs by sulforhodamine B assay relative to control; settings: NCI-H226, 48 h, read-out: Activity
SNB-19 = experiment: Growth inhibition of human SNB19 cells assessed as cell growth at 1 uM incubated for 48 hrs by sulforhodamine B assay relative to control; settings: SNB-19, 48 h, read-out: Activity
SNB-75 = experiment: Growth inhibition of human SNB75 cells assessed as cell growth at 1 uM incubated for 48 hrs by sulforhodamine B assay relative to control; settings: SNB-75, 48 h, read-out: Activity
SK-MEL-2 = experiment: Growth inhibition of human SK-MEL-2 cells assessed as cell growth at 1 uM incubated for 48 hrs by sulforhodamine B assay relative to control; settings: SK-MEL-2, 48 h, read-out: Activity
UACC-62 [14] = experiment: Growth inhibition of human UACC62 cells assessed as cell growth at 1 uM incubated for 48 hrs by sulforhodamine B assay relative to control; settings: UACC-62, 48 h, read-out: Activity
OVCAR-3 = experiment: Growth inhibition of human OVCAR3 cells assessed as cell growth at 1 uM incubated for 48 hrs by sulforhodamine B assay relative to control; settings: OVCAR-3, 48 h, read-out: Activity
786-0 [15] = experiment: Growth inhibition of human 786-0 cells assessed as cell growth at 1 uM incubated for 48 hrs by sulforhodamine B assay relative to control; settings: 786-0, 48 h, read-out: Activity
ACHN = experiment: Growth inhibition of human ACHN cells assessed as cell growth at 1 uM incubated for 48 hrs by sulforhodamine B assay relative to control; settings: read-out: Activity
CAKI-1 [16] = experiment: Growth inhibition of human Caki1 cells assessed as cell growth at 1 uM incubated for 48 hrs by sulforhodamine B assay relative to control; settings: CAKI-1, 48 h, read-out: Activity
RPMI-8226 [17] = experiment: Growth inhibition of human RPMI8226 cells assessed as cell growth at 100 uM incubated for 48 hrs by sulforhodamine B assay relative to control; settings: RPMI-8226, 48 h, read-out: Activity
SF-539 = experiment: Growth inhibition of human SF539 cells assessed as cell growth at 100 uM incubated for 48 hrs by sulforhodamine B assay relative to control; settings: SF-539, 48 h, read-out: Activity
CAKI-1 [18] = experiment: Growth inhibition of human Caki1 cells assessed as cell growth at 100 uM incubated for 48 hrs by sulforhodamine B assay relative to control; settings: CAKI-1, 48 h, read-out: Activity
[19] = read-out: LC50 (the source's name)
[20] = read-out: pLC50 (the source's name) (converted)

Work on `c1ccc2[nH]c(-c3ccc(-c4nccc5c4[nH]c4ccccc45)cc3)nc2c1` yielded a GI50 (A549; read-out: GI50) of 4.15 µM, an LC50 (concentration killing 50% of starting cells) (A549; read-out: LC50) of 7.98 µM and a GI50 (A549; read-out: pGI50 (converted)) of 4.17 µM. The LC50 (concentration killing 50% of starting cells) (A549; read-out: pLC50 (converted)) was 79.4 µM, the TGI (A549; read-out: pTGI (converted)) was 18.6 µM and the GI50 (NCI-H460; read-out: GI50) was 3.03 µM. For the same compound, the CC50 (NCI-H460; [19]) was over 1 µM, the TGI (NCI-H460; read-out: TGI) was 9.8 µM and the GI50 (NCI-H460; read-out: pGI50 (converted)) was 3.02 µM. The CC50 (NCI-H460; [20]) was over 100 µM, the TGI (NCI-H460; read-out: pTGI (converted)) was 9.77 µM and the CC50 (HCT-116 [1]; [19]) was 4.43 µM. It also gave a GI50 (HCT-116 [1]; read-out: pGI50 (converted)) of 2.82 µM, a CC50 (HCT-116 [1]; [20]) of 44.7 µM and a TGI (HCT-116 [1]; read-out: pTGI (converted)) of 10.5 µM. The GI50 (SW-620; read-out: GI50) was 2.79 µM, the CC50 (SW-620; [19]) was over 1 µM and the TGI (SW-620; read-out: TGI) was 8.48 µM. It also gave a GI50 (SW-620; read-out: pGI50 (converted)) of 2.82 µM, a CC50 (SW-620; [20]) of over 100 µM and a TGI (SW-620; read-out: pTGI (converted)) of 8.51 µM. For the same compound, the GI50 (M14; read-out: GI50) was 1.79 µM, the CC50 (M14; [19]) was 7.12 µM and the TGI (M14; read-out: TGI) was 3.57 µM. For the same compound, the GI50 (M14; read-out: pGI50 (converted)) was 1.78 µM, the CC50 (M14; [20]) was 7.08 µM and the TGI (M14; read-out: pTGI (converted)) was 3.55 µM. For the same compound, the CC50 (SK-MEL-5; [19]) was 4.42 µM, the GI50 (SK-MEL-5; read-out: pGI50 (converted)) was 3.72 µM and the CC50 (SK-MEL-5; [20]) was 44.7 µM. It also gave a TGI (SK-MEL-5; read-out: pTGI (converted)) of 14.5 µM, a GI50 (UACC-62 [2]; read-out: GI50) of 1.6 µM and a CC50 (UACC-62 [2]; [19]) of 7.62 µM. The TGI (UACC-62 [2]; read-out: TGI) was 3.49 µM, the GI50 (UACC-62 [2]; read-out: pGI50 (converted)) was 1.58 µM and the CC50 (UACC-62 [2]; [20]) was 7.59 µM. The TGI (UACC-62 [2]; read-out: pTGI (converted)) was 3.47 µM, the growth at 0.01 µM (K562 [3]) was 104% and the growth at 0.01 µM (HCT-116 [4]) was 92%. The growth at 0.01 µM (786-0 [5]) was 89%, the growth at 0.01 µM (RXF 393 [6]) was 106% and the growth at 0.01 µM (DU-145 [7]) was 98%. For the same compound, the growth at 0.1 µM (K562 [8]) was 108%, the growth at 0.1 µM (RPMI-8226 [9]) was 105% and the growth at 0.1 µM (HOP-62 [10]) was 89%. For the same compound, the growth at 0.1 µM (KM12) was 96%, the growth at 0.1 µM (RXF 393 [11]) was 108% and the growth at 0.1 µM (DU-145 [12]) was 96%. For the same compound, the growth at 1 µM (HOP-62 [13]) was 88%, the growth at 1 µM (NCI-H226) was 96% and the growth at 1 µM (SNB-19) was 88%. The growth at 1 µM (SNB-75) was 74%, the growth at 1 µM (SK-MEL-2) was 94% and the growth at 1 µM (UACC-62 [14]) was 80%. For the same compound, the growth at 1 µM (OVCAR-3) was 92%, the growth at 1 µM (786-0 [15]) was 89% and the growth at 1 µM (ACHN) was 101%. The growth at 1 µM (CAKI-1 [16]) was 91%, the growth at 100 µM (RPMI-8226 [17]) was 43% and the growth at 100 µM (SF-539) was 70%. It also gave a growth at 100 µM (CAKI-1 [18]) of 76%.
